Entries after “also recorded” stand apart in the source; their conditions may differ.
Tests used:
U87-MG cells [1] = experiment: U87-MG viability with NAC pretreatment, alamarBlue; type: cell-based, human; details: 2 hour pretreatment with 5 mM NAC, then 72 hours Y102
Method: The data for FIG. 6 was obtained as follows: U87-MG cells were plated at a concentration of 5,000 cells/well into 96-well plates and allowed to adhere overnight. The following day, cells were pretreated with 5 mM N-acetyl cysteine (NAC) or the equivalent volume of DMSO 2 h prior to treatment with Y102 at concentrations ranging from 0 to 20 μM for 72 h. Three hours prior to collection, alamarBlue (Thermo Scientific) was added to a final concentration of 5% v/v. AlamarBlue fluorescence was determined with a Spectramax M2 (Molecular Devices) plate reader at an excitation of 544 nm and an emission of 590 nm using SoftMax Pro 3 software. Results were plotted as a percentage compared to DMSO control using GraphPad Prism software (FIG. 6).

[2] = tested on: mitochondrial marker Tom20 in U87-MG cells; experiment: Tom20 flow cytometry (mitochondrial fluorescence); type: cell-based, human; details: 20 h, 2 or 2.75 μM
Method: The data for FIG. 8 was obtained as follows: U87-MG cells were plated at a concentration of 500,000 cells/well in a 6-well plate and allowed to adhere overnight. Cells were treated for 4 h with DMSO, followed by a 20 h cotreatment with DMSO, 2 μM Y102, 2.75 μM Y102, or 50 μM HCQ. Following treatment, cells were harvested using 0.25% trypsin, rinsed with PBS, and fixed for 20 minutes at 4° C. using BD Cytofix/Cytoperm fixation and permabilization solution (BD Biosciences). Following 2 washes with BD Perm/Wash buffer (BD Biosciences), cells were stained for 30 minutes at 4° C. in the dark for the mitochondrial marker Tom20 using anti-Tom20 FL-145 (Santa Cruz, 1:200). Following an additional 2 washes with BD Perm/Wash buffer, cells were stained with goat anti-rabbit 488 (Jackson ImmunoResearch Laboratories) secondary antibody for 30 minutes at 4° C. in the dark. Cells were washed twice with BD Perm/Wash buffer, resuspended in 0.5 mL PBS, and filtered prior to analysis. The cells were transferred to flow cytometry tubes and analyzed using a MacsQuant VYB 8-color flow cytometer. Tom20 fluorescence was detected using the B1-A (FITC) channel. 35,000 events/sample were collected and cellular debris was gated out of the dataset. Histograms were generated using the FlowLogic flow cytometry analysis software package.

[3] = tested on: BNIP3L/Nix in NF1+/+ and NF1−/− IMEC CRISPR cells; experiment: BNIP3L/Nix immunofluorescence; type: cell-based; details: 1 μM, 24 h, NF1−/− vs NF1+/+ IMEC CRISPR cells, vs DMSO
Source text: Mitochondria can also be removed via non-selective autophagy (21). To distinguish between inhibition of mitophagy and not non-selective autophagy, expression and localization of one mitophagy-specific receptors involved in […] mitophagy, BNIP3L/Nix, was examined via immunofluorescence (25) (FIG. 10). BNIP3 and its homologue BNIP3L/NIX are involved in hypoxia-induced mitophagy and are transcriptionally regulated through HIF in human cancers (27). BNIP3-mediated mitophagy is also reported to occur following perinuclear clustering and fragmentation of the mitochondria (28,29). Under hypoxic conditions, both BNIP3 and FUNDC1 are reported to localize to the outer mitochondrial membrane (30). Therefore, if mitophagy is inhibited with Y102 under hypoxic conditions, BNIP3, NIX/BNIP3L, and/or FUNDC1 should accumulate if Y102 inhibits […] mitophagy following receptor localization.
CRISPR technology was used to introduce mutated NF1 into mammalian IMEC cells in order to generate an isogenic system for the testing of compounds that mimics the yeast isogenic system used in the original screens.
The data for FIG. 10 was obtained as follows: NF1+/+ and NF1−/− IMEC CRISPR cells were plated on poly-L-lysine (Sigma) coated coverslips at a concentration of 50,000 cells/well in a 24-well plate and allowed to adhere overnight. […]

U87-MG cells [4] = experiment: U87-MG cell viability, alamarBlue, washout; type: cell-based, human; details: 2 hour treatment then washout compared to 72 hour treatment; 0 to 20 μM
Method: Growth inhibition assays as described above were performed on ira2Δ yeast cells and NF1-deficient glioblastoma cells. Log-phase yeast were grown at 30° C. starting at an OD600 of 0.05 in 96-well plates with Y102 at concentrations ranging from 0 to 100 μM. Following 18 h treatment, OD600 was measured using a THERMOmax (Molecular Devices) microplate reader and SOFTmax Pro 4.3 LS software. Results were plotted as a percentage compared to DMSO control using GraphPad Prism software. Graph represents an average of three experiments with four technical replicates per experiment (FIG. 2A). In a similar experiment U87-MG cells were plated at a concentration of 5,000 cells/well into 96-well plates and allowed to adhere overnight. The following day, cells were treated with Y102 at concentrations ranging from 0 to 20 μM for up to 72 h. For treatments less than 72 h, treatment media was removed at the indicated time points and replaced with normal growth medium. Three hours prior to collection, alamarBlue (Thermo Scientific) was added to a final concentration of 5% v/v. AlamarBlue fluorescence was determined with a Spectramax M2 (Molecular Devices) plate reader at an excitation of 544 nm and an emission of 590 nm using SoftMax Pro 3 software. Results were plotted as a percentage compared to DMSO control using GraphPad Prism software (FIG. 2B). […]

For Cn1cnnc1S/C=C/C(=O)c1ccc(F)cc1 [Y102], the “sensitivity to Y102 after NAC pretreatment” value (U87-MG cells [1]) was “reversed sensitivity to Y102; also recorded: rescued”, the “mitochondrial fluorescence / accumulation (Tom20)” value [2] was “increase in mitochondrial fluorescence; also recorded: accumulation of the mitochondria” and the “BNIP3L/Nix accumulation (mitophagy receptor)” value [3] was “perinuclear clustering of the mitophagy receptor BNIP3L/NIX was observed; also recorded: accumulated with Y102 treatment moreso in NF1−/− cells than in NF1+/+ cells”. The “reversibility of effect on U87-MG cell viability” value (U87-MG cells [4]) was “irreversible”.
